# Reference: patent US20230085307A1, “PYRIDAZINONE COMPOUND AND HERBICIDE” (NISSAN CHEMICAL CORPORATION, priority 2019, published 2023)
# Legend:
# chickweed = test: Test Example 5: herbicidal effect by foliage application, plastic box (Table 20, symbol P); format: in vivo, common chickweed (Stellaria media)
# Procedure, shortened: (§1)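 Plants were sown into sterilized diluvial soil under about 1.5 cm cover and kept in a greenhouse at 25° C. to 30° C. Fourteen days on, foliage received an even spray of the diluted emulsion. Herbicidal or crop effect was judged three weeks afterwards.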
# Chinese sprangletop = test: Test Example 3: herbicidal effect by foliage application, Wagner pot (Table 18, symbol D); format: in vivo, chinese sprangletop (Leptochloa chinensis)
# Procedure, shortened: (§2)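 Plants were sown in alluvial soil held under 0.1–0.5 cm standing water and grown 14 days in a greenhouse at 25–30 °C. An emulsifiable formulation, water-diluted to the set dose, was then sprayed onto the foliage, and effects were scored three weeks later using previously defined criteria.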
# redroot pigweed = test: Test Example 5: herbicidal effect by foliage application, plastic box (Table 20, symbol N); format: in vivo, redroot pigweed (Amaranthus retroflexus)
# Procedure, shortened: as §1
# rice flat sedge = test: Test Example 3: herbicidal effect by foliage application, Wagner pot (Table 18, symbol E); format: in vivo, rice flat sedge (Cyperus iria)
# Procedure, shortened: as §2
# oval-leafed pondweed [1] = test: Test Example 1: herbicidal activity, application before weed generation under submerged conditions (Table 16, symbol C); format: in vivo, oval-leafed pondweed (Monochoria vaginalis); conditions: amount of applied herbicide 320 g/ha
# Procedure, shortened: (§3)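 Alluvial soil was flooded to 4 cm depth, weed seeds were sown mixed and 2.5-leaf rice seedlings were transplanted. On sowing day, the compound's emulsion, diluted in water to a set dose, was applied to the water surface. Plants grew at 25–30 °C and were scored 0–5 after three weeks.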
# blackgrass = test: Test Example 5: herbicidal effect by foliage application, plastic box (Table 20, symbol J); format: in vivo, blackgrass (Alopecurus myosuroides)
# Procedure, shortened: as §1
# wild oat = test: Test Example 5: herbicidal effect by foliage application, plastic box (Table 20, symbol I); format: in vivo, wild oat (Avena fatua)
# Procedure, shortened: as §1
# windgrass = test: Test Example 5: herbicidal effect by foliage application, plastic box (Table 20, symbol L); format: in vivo, windgrass (Apera spica-venti)
# Procedure, shortened: as §1
# Japanese bulrush [2] = test: Test Example 1: herbicidal activity, application before weed generation under submerged conditions (Table 16, symbol B); format: in vivo, Japanese bulrush (Schoenoplectus juncoides); conditions: amount of applied herbicide 320 g/ha
# Procedure, shortened: as §3
# velvetleaf = test: Test Example 5: herbicidal effect by foliage application, plastic box (Table 20, symbol M); format: in vivo, velvetleaf (Abutilon theophrasti)
# Procedure, shortened: as §1
# lambsquarters = test: Test Example 5: herbicidal effect by foliage application, plastic box (Table 20, symbol O); format: in vivo, lambsquarters (Chenopodium album)
# Procedure, shortened: as §1
# late watergrass [3] = test: Test Example 1: herbicidal activity, application before weed generation under submerged conditions (Table 16, symbol A); format: in vivo, late watergrass (Echinochloa oryzicola); conditions: amount of applied herbicide 320 g/ha
# Procedure, shortened: as §3
# southern crabgrass = test: Test Example 5: herbicidal effect by foliage application, plastic box (Table 20, symbol F); format: in vivo, southern crabgrass (Digitaria ciliaris)
# Procedure, shortened: as §1
# oval-leafed pondweed [4] = test: Test Example 2: herbicidal activity, application during weed generation under submerged conditions (Table 17, symbol C); format: in vivo, oval-leafed pondweed (Monochoria vaginalis); conditions: AAH 320 g/ha; application during weed generation, submerged conditions
# Procedure, shortened: (§4)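 Herbicide emulsion, diluted with water to the chosen amount, is applied onto 4 cm floodwater over alluvial soil where the weeds were co-sown and raised at 25–30° C. Application timing: 1–2 leaves. Assessment: three weeks afterwards.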
# green foxtail = test: Test Example 5: herbicidal effect by foliage application, plastic box (Table 20, symbol G); format: in vivo, green foxtail (Setaria viridis)
# Procedure, shortened: as §1
# persian speedwell = test: Test Example 5: herbicidal effect by foliage application, plastic box (Table 20, symbol R); format: in vivo, Persian speedwell (Veronica persica)
# Procedure, shortened: as §1
# barnyard grass [5] = test: Test Example 3: herbicidal effect by foliage application, Wagner pot (Table 18, symbol H); format: in vivo, barnyard grass (Echinochloa crus-galli)
# Procedure, shortened: as §2
# Italian ryegrass = test: Test Example 5: herbicidal effect by foliage application, plastic box (Table 20, symbol K); format: in vivo, Italian ryegrass (Lolium multiflorum)
# Procedure, shortened: as §1
# Japanese bulrush [6] = test: Test Example 2: herbicidal activity, application during weed generation under submerged conditions (Table 17, symbol B); format: in vivo, Japanese bulrush (Schoenoplectus juncoides); conditions: AAH 320 g/ha; application during weed generation, submerged conditions
# Procedure, shortened: as §4
# late watergrass [7] = test: Test Example 2: herbicidal activity, application during weed generation under submerged conditions (Table 17, symbol A); format: in vivo, late watergrass (Echinochloa oryzicola); conditions: AAH 320 g/ha; application during weed generation, submerged conditions
# Procedure, shortened: as §4
# barnyard grass [8] = test: Test Example 5: herbicidal effect by foliage application, plastic box (Table 20, symbol H); format: in vivo, barnyard grass (Echinochloa crus-galli)
# Procedure, shortened: as §1
# [9] = foliage application, 320 g/ha, three weeks after application
# [10] = amount of applied herbicide 320 g/ha
# [11] = amount of applied herbicide 320 g/ha, foliage application after 14-day growth, evaluated three weeks after application
structure (smiles),measurement,setting,value
CCCC(=O)Oc1c(CC)nn(C)c(=O)c1-c1c(-c2ccc(OC(F)(F)F)cc2)sc2ccc(F)cc12 [2-413],"P: chickweed, herbicidal effect grade",chickweed; [9],5 (Herbicidal rate of 90% or more (almost completely withered))
same,herbicidal effect on D: Chinese sprangletop,Chinese sprangletop; [10],4 (Herbicidal rate of 70% or more and less than 90%)
same,"N: redroot pigweed, herbicidal effect grade",redroot pigweed; [9],4 (Herbicidal rate of 70% or more and less than 90%)
same,herbicidal effect on E: rice flat sedge,rice flat sedge; [10],4 (Herbicidal rate of 70% or more and less than 90%)
same,"Herbicidal effect, C: oval-leafed pondweed",oval-leafed pondweed [1],0 (Herbicidal rate of 5% or less (almost no effect))
same,"J: blackgrass, herbicidal effect grade",blackgrass; [9],0 (Herbicidal rate of 5% or less (almost no effect))
same,"I: wild oat, herbicidal effect grade",wild oat; [9],0 (Herbicidal rate of 5% or less (almost no effect))
same,"L: windgrass, herbicidal effect grade",windgrass; [9],0 (Herbicidal rate of 5% or less (almost no effect))
same,"Herbicidal effect, B: Japanese bulrush",Japanese bulrush [2],0 (Herbicidal rate of 5% or less (almost no effect))
same,"M: velvetleaf, herbicidal effect grade",velvetleaf; [9],4 (Herbicidal rate of 70% or more and less than 90%)
same,"O: lambsquarters, herbicidal effect grade",lambsquarters; [9],4 (Herbicidal rate of 70% or more and less than 90%)
same,"Herbicidal effect, A: late watergrass",late watergrass [3],3 (Herbicidal rate of 40% or more and less than 70%)
same,"F: southern crabgrass, herbicidal effect grade",southern crabgrass; [9],0 (Herbicidal rate of 5% or less (almost no effect))
same,"herbicidal effect rating, C: oval-leafed pondweed",oval-leafed pondweed [4],0 (Herbicidal rate of 5% or less (almost no effect))
same,"G: green foxtail, herbicidal effect grade",green foxtail; [9],3 (Herbicidal rate of 40% or more and less than 70%)
same,"R: persian speedwell, herbicidal effect grade",persian speedwell; [9],5 (Herbicidal rate of 90% or more (almost completely withered))
same,herbicidal effect on H: barnyard grass,barnyard grass [5]; [10],5 (Herbicidal rate of 90% or more (almost completely withered))
same,"K: Italian ryegrass, herbicidal effect grade",Italian ryegrass; [9],2 (Herbicidal rate of 20% or more and less than 40%)
same,"herbicidal effect rating, B: Japanese bulrush",Japanese bulrush [6],1 (Herbicidal rate of 5% or more and less than 20%)
same,"herbicidal effect rating, A: late watergrass",late watergrass [7],3 (Herbicidal rate of 40% or more and less than 70%)
same,"H: barnyard grass, herbicidal effect grade",barnyard grass [8]; [9],1 (Herbicidal rate of 5% or more and less than 20%)
CCCC(=O)Oc1c(C)nn(C)c(=O)c1-c1c(-c2ccc(C#N)cc2)sc2cc(Cl)c(Cl)cc12 [5-050],"Herbicidal effect by foliage application, P: chickweed",chickweed; [11],3 (Herbicidal rate of 40% or more and less than 70%)
same,herbicidal effect on Chinese sprangletop (D),Chinese sprangletop; 320 g/ha,4 (Herbicidal rate of 70% or more and less than 90%)
same,"Herbicidal effect by foliage application, N: redroot pigweed",redroot pigweed; [11],0 (Herbicidal rate of 5% or less (almost no effect))
same,herbicidal effect on rice flat sedge (E),rice flat sedge; 320 g/ha,0 (Herbicidal rate of 5% or less (almost no effect))
same,"Herbicidal effect, C: oval-leafed pondweed",oval-leafed pondweed [1],0 (Herbicidal rate of 5% or less (almost no effect))
same,"Herbicidal effect by foliage application, J: blackgrass",blackgrass; [11],0 (Herbicidal rate of 5% or less (almost no effect))
same,"Herbicidal effect by foliage application, I: wild oat",wild oat; [11],0 (Herbicidal rate of 5% or less (almost no effect))
same,"Herbicidal effect by foliage application, L: windgrass",windgrass; [11],0 (Herbicidal rate of 5% or less (almost no effect))
same,"Herbicidal effect, B: Japanese bulrush",Japanese bulrush [2],0 (Herbicidal rate of 5% or less (almost no effect))
same,"Herbicidal effect by foliage application, M: velvetleaf",velvetleaf; [11],0 (Herbicidal rate of 5% or less (almost no effect))
same,"Herbicidal effect by foliage application, O: lambsquarters",lambsquarters; [11],0 (Herbicidal rate of 5% or less (almost no effect))
same,"Herbicidal effect, A: late watergrass",late watergrass [3],3 (Herbicidal rate of 40% or more and less than 70%)
same,"Herbicidal effect by foliage application, F: southern crabgrass",southern crabgrass; [11],0 (Herbicidal rate of 5% or less (almost no effect))
same,"herbicidal effect rating, C: oval-leafed pondweed",oval-leafed pondweed [4],0 (Herbicidal rate of 5% or less (almost no effect))
same,"Herbicidal effect by foliage application, G: green foxtail",green foxtail; [11],0 (Herbicidal rate of 5% or less (almost no effect))
same,"Herbicidal effect by foliage application, R: persian speedwell",persian speedwell; [11],3 (Herbicidal rate of 40% or more and less than 70%)
same,herbicidal effect on barnyard grass (H),barnyard grass [5]; 320 g/ha,2 (Herbicidal rate of 20% or more and less than 40%)
same,"Herbicidal effect by foliage application, K: Italian ryegrass",Italian ryegrass; [11],0 (Herbicidal rate of 5% or less (almost no effect))
same,"herbicidal effect rating, B: Japanese bulrush",Japanese bulrush [6],2 (Herbicidal rate of 20% or more and less than 40%)
same,"herbicidal effect rating, A: late watergrass",late watergrass [7],0 (Herbicidal rate of 5% or less (almost no effect))
same,"Herbicidal effect by foliage application, H: barnyard grass",barnyard grass [8]; [11],0 (Herbicidal rate of 5% or less (almost no effect))
